Holding throughout (experiment): two-electrode voltage clamp, Xenopus oocytes
Common to all, as to assay type: cell-based
Holding throughout (details): 10^-4 M odorant; Ca2+-free Ringer buffer pH 7.6; agonist
A general note: In two-electrode clamp one electrode senses voltage and the other passes current.

In test [1] the target is T1, SfruOR5 (Spodoptera frugiperda, UniProt A0A9R0ELQ8).
T1 construct: gene LOC118270580; full-length ORF, pT7TS cRNA, Xenopus laevis oocytes; with Odorant receptor coreceptor
T1 sequence (A0A9R0ELQ8 1-379): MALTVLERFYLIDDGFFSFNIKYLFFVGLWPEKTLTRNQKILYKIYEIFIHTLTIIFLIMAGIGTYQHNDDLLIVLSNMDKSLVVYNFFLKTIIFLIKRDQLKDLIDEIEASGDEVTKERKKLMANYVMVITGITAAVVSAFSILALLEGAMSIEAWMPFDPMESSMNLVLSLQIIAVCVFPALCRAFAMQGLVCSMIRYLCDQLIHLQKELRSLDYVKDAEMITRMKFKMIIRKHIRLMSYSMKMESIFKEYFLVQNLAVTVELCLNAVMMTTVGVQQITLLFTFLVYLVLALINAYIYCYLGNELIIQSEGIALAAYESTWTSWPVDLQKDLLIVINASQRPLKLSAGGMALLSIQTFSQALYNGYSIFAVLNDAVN
T1 sequence (A0A9F1UC78 1-473 partner): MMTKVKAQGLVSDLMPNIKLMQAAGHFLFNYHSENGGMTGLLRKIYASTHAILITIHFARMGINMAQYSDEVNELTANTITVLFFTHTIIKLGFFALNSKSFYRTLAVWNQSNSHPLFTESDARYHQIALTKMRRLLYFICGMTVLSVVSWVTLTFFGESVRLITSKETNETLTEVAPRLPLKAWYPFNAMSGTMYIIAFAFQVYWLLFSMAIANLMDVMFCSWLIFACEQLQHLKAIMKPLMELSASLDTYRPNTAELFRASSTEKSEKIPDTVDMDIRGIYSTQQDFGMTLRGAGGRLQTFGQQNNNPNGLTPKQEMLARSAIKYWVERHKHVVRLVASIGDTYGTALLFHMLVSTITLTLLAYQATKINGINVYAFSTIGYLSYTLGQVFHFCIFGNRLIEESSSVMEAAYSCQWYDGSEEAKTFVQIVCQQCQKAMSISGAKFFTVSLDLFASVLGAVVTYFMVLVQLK

The target in test [2] is T2, SfruOR17 (Spodoptera frugiperda, UniProt A0A9R0D2T2).
T2 construct: gene LOC118267896; full-length ORF, pT7TS cRNA, Xenopus laevis oocytes; with Odorant receptor coreceptor
T2 sequence (A0A9R0D2T2 1-395): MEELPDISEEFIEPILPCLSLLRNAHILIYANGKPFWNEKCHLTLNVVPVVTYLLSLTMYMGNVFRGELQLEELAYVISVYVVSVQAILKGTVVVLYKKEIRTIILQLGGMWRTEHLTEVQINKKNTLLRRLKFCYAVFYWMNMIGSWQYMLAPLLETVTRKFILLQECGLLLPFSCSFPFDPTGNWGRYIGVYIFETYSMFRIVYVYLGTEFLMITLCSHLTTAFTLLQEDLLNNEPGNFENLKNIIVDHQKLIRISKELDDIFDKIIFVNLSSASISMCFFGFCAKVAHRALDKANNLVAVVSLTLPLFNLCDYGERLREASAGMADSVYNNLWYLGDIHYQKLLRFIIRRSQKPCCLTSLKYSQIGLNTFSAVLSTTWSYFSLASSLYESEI
T2 sequence (A0A9F1UC78 1-473 partner): T1 sequence (A0A9F1UC78 1-473 partner)

Test [3] addresses T3, SfruOR23/ORco (Spodoptera frugiperda, UniProt A0A9R0EA99).
T3 construct: gene LOC118268273; full-length ORF, pT7TS cRNA, Xenopus laevis oocytes, with ORco; with Odorant receptor coreceptor
T3 sequence (A0A9R0EA99 1-429): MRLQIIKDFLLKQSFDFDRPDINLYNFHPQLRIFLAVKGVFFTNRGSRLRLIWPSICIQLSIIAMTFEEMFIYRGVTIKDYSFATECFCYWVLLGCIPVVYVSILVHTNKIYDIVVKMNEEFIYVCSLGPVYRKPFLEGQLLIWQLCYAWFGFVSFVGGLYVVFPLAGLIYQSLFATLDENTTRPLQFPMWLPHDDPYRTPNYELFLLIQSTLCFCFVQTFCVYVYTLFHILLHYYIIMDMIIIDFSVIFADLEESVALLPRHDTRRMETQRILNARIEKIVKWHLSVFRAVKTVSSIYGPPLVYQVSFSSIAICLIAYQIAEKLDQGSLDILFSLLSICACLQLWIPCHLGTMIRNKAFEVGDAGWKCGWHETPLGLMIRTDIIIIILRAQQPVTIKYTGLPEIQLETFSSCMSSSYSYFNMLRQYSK
T3 sequence (A0A9F1UC78 1-473 partner): T1 sequence (A0A9F1UC78 1-473 partner)

The target in test [4] is T4, SfruOR9 (Spodoptera frugiperda, UniProt A0A9R0EEX7).
T4 construct: gene LOC118261888; full-length ORF, pT7TS cRNA, Xenopus laevis oocytes; with Odorant receptor coreceptor
T4 sequence (A0A9R0EEX7 1-400): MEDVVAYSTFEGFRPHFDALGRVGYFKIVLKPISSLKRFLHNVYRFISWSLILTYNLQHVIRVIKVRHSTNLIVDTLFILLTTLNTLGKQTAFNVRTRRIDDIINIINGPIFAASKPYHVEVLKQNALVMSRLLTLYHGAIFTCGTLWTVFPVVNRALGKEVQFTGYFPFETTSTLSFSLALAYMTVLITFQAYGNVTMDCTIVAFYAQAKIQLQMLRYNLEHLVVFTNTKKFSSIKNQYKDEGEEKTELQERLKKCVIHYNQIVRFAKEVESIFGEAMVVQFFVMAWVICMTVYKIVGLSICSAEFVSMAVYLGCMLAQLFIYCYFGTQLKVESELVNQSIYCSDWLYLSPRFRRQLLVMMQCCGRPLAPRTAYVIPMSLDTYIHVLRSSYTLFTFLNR
T4 sequence (A0A9F1UC78 1-473 partner): T1 sequence (A0A9F1UC78 1-473 partner)

For the compound `CC/C=C\CCOC(C)=O` [(Z)-3-hexenyl-acetate], the inward current response result in test [1] is “SfruOR5, SfruOR9, SfruOR17, SfruOR23, and SfruOR25 responded to the oviposition stimulant (Z)-3-hexenyl-acetate”; in test [2] it was “SfruOR5, SfruOR9, SfruOR17, SfruOR23, and SfruOR25 responded to the oviposition stimulant (Z)-3-hexenyl-acetate”; in test [3], “with SfruOR23/ORco showing the highest response”; in test [4] it was “SfruOR5, SfruOR9, SfruOR17, SfruOR23, and SfruOR25 responded to the oviposition stimulant (Z)-3-hexenyl-acetate”.
